From patent publication US12098362B2, “Uses of Daldinia sp. or volatile organic compounds derived therefrom” (THE STATE OF ISRAEL, MINISTRY OF AGRICULTURE & RURAL …, priority 2015, dated 2024)

What was measured:
[1] = system: A. niger, B. cinerea, A. alternata, and P. digitatum; experiment: Ability of commercially available VOC compounds to control growth of four test fungi; type: cell-based; conditions: single commercially available compound
Experimental: (§1) All chemical compounds were purchased from Sigma (Rehovot, Israel) and were of the highest purity available. The bioactivity of the mixtures combined on the VOCs identified, was determined as follows: Petri dishes (90 mm, 80 mL air volume) containing 15 mL of media (PDA amended with 12 μg/mL tetracycline) were inoculated (triplicates, 2 plugs each) with the test fungi A. alternata and B. cinerea (in the same plate), P. digitatum and A. niger (in separate plates). A cup of an Eppendorf tube was placed in the middle of the plate to which increasing volumes (0-200 μL) of the mixture was added. Then, the plates were sealed with parafilm and incubated at room temperature for two days before comparing the growth of the test fungi in those plates to control plates in the absence of the mixture. The ability of two mixtures: Mixture A and Mixture B to control other plant pathogenic fungi was determined as described above except that the concentration of the mixture was constant (1 mL/L) and the growth inhibition was estimated after 6 days. The viability of the test fungi after exposure to the mixtures was examined as described for D. concentrica.
(§2) The activity of each chemical component of the mixture was examined separately as described for the mixtures. […]

M. javanica J2 larvae = experiment: Phenotype of second stage juveniles under a stereomicroscope after exposure; type: in vivo, Meloidogyne javanica; conditions: 0.05 mL/L preloaded to 25 mg of perlite particles; 48 hours at 25° C.
Experimental: FIGS. 20A-D show second stage juveniles' phenotype following exposure to D. concentrica culture, synthetic mixture, and the compound 4-heptanone. The nematodes were exposed to each condition for 48 hours at 25° C. in the dark before visualization. FIG. 20A. Control—non treated nematodes. FIG. 20B. Nematodes exposed to three D. concentrica culture plates (50 mm in diameter with 5 mL growth medium) pre-grown for 4 days. FIG. 20C. Nematodes exposed to 0.25 mL/L of synthetic mixture preloaded to 125 mg of perlite particles. FIG. 20D. Nematodes exposed to 0.05 mL/L of the compound 4-heptanone preloaded to 25 mg of perlite particles. The bar indicates […].
The effects of D. concentrica, synthetic mixture and the pure compound 4-heptanone were also examined visually under a stereomicroscope. The results are presented in FIGS. 20A-D wherein FIG. 20A represents non-treated nematodes; FIG. 20B represents nematodes exposed to three D. concentrica culture plates (50 mm in diameter with 5 mL growth medium) pre-grown for 4 days; FIG. 20C represents nematodes exposed to 0.25 mL/L of synthetic mixture preloaded to 125 mg of perlite particles; FIG. 20D represents nematodes exposed to 0.05 mL/L of the compound 4-heptanone preloaded to 25 mg of perlite particles.

Aspergillus niger = experiment: Chemical mixtures bioactivity test in sealed Petri dish; type: cell-based; conditions: single compound
Experimental: as §1, §2

Penicillium digitatum = experiment: as above; type: cell-based; conditions: single compound
Experimental: as §1, §2

Q: For `COc1cc2ccccc2cc1O` [3-methoxy-2-naphthol], which “ability to control the growth of A. niger, B. cinerea, A. alternata, and P. digitatum” value [1] is on record?
A: Its value is “failed to inhibit fungal growth”.

Q: Which “nematode phenotype (body shape, viability)” value (M. javanica J2 larvae) does the source give for `CCCC(=O)CCC` [Mixture 4-heptanone, 4-heptanone] here?
A: The value was “most of the nematodes demonstrated the typical straight body shape with nearly no curved appearance”.

Q: Which “ability to control the growth of A. niger, B. cinerea, A. alternata, and P. digitatum” value [1] does the source give for `OCCc1ccccc1` [phenyl ethyl alcohol] here?
A: The value was “failed to inhibit fungal growth”.

Q: What does the source list for methyl-1,4-cyclohexadiene?
A: growth inhibition of A. niger (Aspergillus niger): 10.8%; growth inhibition of P. digitatum (Penicillium digitatum): 3.1%
